Earlier results in patent US7183417B2, “Simple stereocontrolled synthesis of salinosporamide A” (priority 2004, dated 2007).

Tests used:
proteasome = settings: qualitative statement from the literature
many tumor cell lines = settings: read-out: in vitro cytotoxic activity IC50

Compound | proteasome inhibition (in words) (proteasome) | IC50 (many tumor cell lines)
CC(C)[C@H](O)[C@@]12NC(=O)[C@H](C)[C@@H]1OC2=O [omuralide, reference compound] | potent inhibitor of proteasome function | 
C[C@@]12OC(=O)[C@]1([C@@H](O)[C@@H]1C=CCCC1)NC(=O)[C@@H]2CCCl [Salinosporamide A] | even more effective proteasome inhibitor than omuralide | ≤ 10 nM
